Data reported in patent US20250019370A1, “L-LYSINE SALT OF 4-CHLORO-5-[4-(2,6-DICHLOROPHENYL)SULFONYLPIPERAZIN-1-YL]-1-BENZOFURAN-2-CARBOXYLIC ACID AND VARIOUS FORMS THEREOF” (ENYO PHARMA, priority 2023, published 2025).

Assays:
[1] = Solubility kinetics in FeSSIF medium; assay type: physicochemical; settings: for Soluble fraction: 37 ° C.
Method: The solubility kinetics of the salt forms as well as the native EYP001 free acid form were determined in FaSSIF and FeSSIF media, and in a pH 4.5 acetate buffer as detailed below: The samples were prepared by adding an excess of each tested bulk (salt or native EYP001) to a given volume of test medium. […] In FaSSIF medium, the soluble concentration was assessed after 24 hours of stirring. […] At each time point, the “supernatant” was isolated and diluted in a solvent mixture allowing its injection into the chromatographic system. The concentration in solution in the test medium was determined by HPLC with external standardization.

[2] = Pharmacokinetic study Experiment #4, oral administration in rats; assay type: in vivo, rat; settings: 10 mg EqEYP001/Kg, male rats
Method: In a fourth study (Experiment #4), EYP001, EYP001 L-lysine salt amorphous Form and EYP001 L-lysine salt Form VI in aqueous formulations (0.5% CMC, 0.25% Tween 80, water) were orally administrated at a dose of 10 mg EqEYP001/Kg in 8 male rats for each compound (4 rats on day 1 and 4 rats on day 2 for each compound). Blood samples were taken at 0.25 h, 0.5 h, 1 h, 2 h, 4 h, 6 h, 8 h, 12 h, and 24 h after oral administration.

[3] = Thermogravimetric analysis (TGA), mass losses upon heating; assay type: physicochemical; settings: listed as EYP001 L-lysine salt (amorphous form)
Method: Thermogravimetric analysis was performed on a TA Instruments TGA Hi-Res 2950 apparatus equipped with an evolved gas analysis furnace. A sample was placed in an opened aluminium basket and analysed according to the following conditions: […]

[4] = Stability of freeze-dried amorphous material under ambient conditions; assay type: physicochemical
Method: The amorphous material was also prepared by freeze drying of EYP001 L-lysine salt (form I). EYP001 L-lysine salt (form I) was dissolved in CH3CN/H2O (62:38 v:v) at a concentration of 20 mg/mL. Then the solution was freeze-dried to form amorphous EYP001 L-lysine salt. This amorphous material was found stable over at least 19 days under ambient conditions.

[5] = Polymorph screening (solids analysed by XRPD); assay type: physicochemical; settings: amorphous material as starting material
Method: A polymorph screening was performed on EYP001 L-lysine salt crystalline form I (form I as starting material unless otherwise specified).
A number of unique materials with different patterns were produced, including crystalline forms I-IV and an amorphous material. All solids from the screening experiments were analysed by XRPD analysis and the resulting patterns compared to that of the reference. The observed solids and their ways of obtention are described in Table 16.

[6] = Dynamic Vapor Sorption (DVS) analysis (gas water sorption); assay type: physicochemical
Method: The dynamic vapor sorption (DVS) analysis (gas water sorption) was performed on a DVS-Intrinsic incubator (SMS Ltd), equipped with DVS-Intrinsic Control Software 1.0. The sample, placed in an aluminium basket holder, was submitted to a full-cycle analysis (sorption followed by desorption cycle) under the following conditions:
The sample was first pre-dried under a stream of dry air until a stabilized sample mass was observed. Then, the relative humidity was increased by 5% increments. At each step, the sample mass was allowed to increase until equilibrium is reached (according to a given dm/dt target), and then a new relative humidity rise occurred. Relative humidity was ramped up to 95%. After equilibration at this point, desorption began in a similar stepwise manner, with sample mass decrease again allowed to stabilize after each incremental humidity decrease.
With both segments of the above-described method, the sample mass recording allowed describing of the whole vapor water sorption/desorption behaviour versus relative humidity.

[7] = Solubility kinetics in pH 4.5 acetate buffer; assay type: physicochemical; settings: 37 ° C.
Method: The solubility kinetics of the salt forms as well as the native EYP001 free acid form were determined in FaSSIF and FeSSIF media, and in a pH 4.5 acetate buffer as detailed below:
The samples were prepared by adding an excess of each tested bulk (salt or native EYP001) to a given volume of test medium. The suspension was stirred by orbital stirring over 1 hour (in both pH 4.5 acetate buffer and FeSSIF medium) or 24 hours (inFaSSIF medium) at 37° C., protected from light.
In pH 4.5 acetate buffer, the soluble concentration was assessed after 0.5 hour and 1 hour of stirring.
At each time point, the “supernatant” was isolated and diluted in a solvent mixture allowing its injection into the chromatographic system. The concentration in solution in the test medium was determined by HPLC with external standardization.

[8] = Solubility kinetics in FaSSIF medium; assay type: physicochemical; settings: after 24 h
Method: The solubility kinetics of the salt forms as well as the native EYP001 free acid form were determined in FaSSIF and FeSSIF media, and in a pH 4.5 acetate buffer as detailed below: The samples were prepared by adding an excess of each tested bulk (salt or native EYP001) to a given volume of test medium. The suspension was stirred by orbital stirring over 1 hour (in both pH 4.5 acetate buffer and FeSSIF medium) or 24 hours ([…] medium) at 37° C., protected from light. In FaSSIF medium, the soluble concentration was assessed after 24 hours of stirring. […] At each time point, the “supernatant” was isolated and diluted in a solvent mixture allowing its injection into the chromatographic system. The concentration in solution in the test medium was determined by HPLC with external standardization.

[9] = Pharmacokinetic study Experiment #2, oral administration in rats; assay type: in vivo, rat; settings: rat, in vivo, 50 mg EqEYP001/Kg, male rats, aqueous formulation
Method: (§1) In a second study (Experiment #2), EYP001 and EYP001 L-lysine salt Form I in aqueous formulations (0.5% CMC, 0.25% Tween 80, water) were orally administrated at a dose of 50 mg EqEYP001/Kg in 8 male rats for each compound. Blood samples were taken at 0.25 h, 0.5 h, 1 h, 2 h, 4 h, 6 h, 8 h, 12 h, and 24 h after oral administration.

[10] = Pharmacokinetic study Experiment #1, oral administration in rats; assay type: in vivo, rat; settings: rat, in vivo, 50 mg EqEYP001/Kg, male rats, aqueous formulation
Method: In a first study (Experiment #1), EYP001, EYP001 Meglumine salt, and EYP001 L-lysine salt Form I in aqueous formulations (0.5% CMC, 0.25% Tween 80, water) were orally administrated at a dose of 50 mg EqEYP001/Kg in 3 male rats for each compound. Blood samples were taken at 0.25 h, 0.5 h, 1 h, 2 h, 4 h, 6 h, 8 h, 12 h, and 24 h after oral administration.

[11] = Pharmacokinetic study Experiment #3, oral administration in rats; assay type: in vivo, rat; settings: rat, plasma, 10 mg EqEYP001/Kg, male rats, aqueous formulation
Method: as §1, with “a third” for “a second”, “(Experiment #3),” for “(Experiment #2),”, “of 10” for “of 50”, “in 6-8” for “in 8”

[12] = after 0.5 h, listed as EYP001 L-Lysine salt (Amorphous form)
[13] = after 1 h, listed as EYP001 L-Lysine salt (Amorphous form)
[14] = aqueous formulation, listed as EYP001 L-lysine salt (Amorphous Form)
[15] = versus EYP001 free acid, listed as EYP001 L-lysine salt (Amorphous Form)
[16] = Entry 4*: no solvent, 23% RH stress
[17] = Entry 5*: no solvent, 40° C./75% RH stress
[18] = Entry 6*: no solvent, 59% RH stress
[19] = Entry 11*: THF, flash evaporation

NCCCC[C@H](N)C(=O)O.O=C(O)c1cc2c(Cl)c(N3CCN(S(=O)(=O)c4c(Cl)cccc4Cl)CC3)ccc2o1 [EYP001 L-lysine salt amorphous form, L-lysine salt of 4-chloro-5-[4-(2,6-dichlorophenyl)sulfonylpiperazin-1-yl]-1-benzofuran-2-carboxylic acid]
Soluble fraction [1, 12]: 1.12 mg/mL of EYP001
Soluble fraction [1, 13]: 1.13 mg/mL of EYP001
Soluble fraction ([1]; after 2 h, listed as EYP001 L-Lysine salt (Amorphous form)): 1.12 mg/mL of EYP001
Soluble fraction ([1]; after 24 h, listed as EYP001 L-Lysine salt (Amorphous form)): 1.11 mg/mL of EYP001
pH ([1]; pH printed with the soluble fraction, after 0.5 h, listed as EYP001 L-Lysine salt (Amorphous form)): (pH = 4.9)
pH ([1]; pH printed with the soluble fraction, after 1 h, listed as EYP001 L-Lysine salt (Amorphous form)): (pH = 4.9)
pH ([1]; pH printed with the soluble fraction, after 24 h, listed as EYP001 L-Lysine salt (Amorphous form)): (pH = 5.0)
Mean AUClast [2, 14]: 4764.7 ng·h/mL
Mean Cmax [2, 14]: 2130.0 ng/mL
% increase/EYP001 (AUClast) [2, 15]: +41.1%
% increase/EYP001 (Cmax) [2, 15]: +47.4%
onset temperature of thermal decomposition (TGA) ([3]; heater ramp 10 ° C./min, nitrogen): 241 °C
mass loss before the beginning of thermal decomposition (TGA) ([3]; upon heating): 2.4%
time found stable [4]: at least 19 days
Results [5, 16]: solid
XRPD [5, 16]: Amorphous
Results [5, 17]: solid
XRPD [5, 17]: Form I
Results [5, 18]: solid
XRPD [5, 18]: Form I
Results ([5]; Entry 9*: no solvent, milling): solid
XRPD ([5]; Entry 9*: no solvent, milling): Amorphous
Results [5, 19]: solid
XRPD [5, 19]: Amorphous
stability at high relative humidity (DVS) ([6]; 25° C.): unstable at high relative humidity
mass loss during preliminary drying phase ([6]; 25° C./0% RH before sorption): 2.6%
water uptake upon sorption (DVS) ([6]; 25° C./40% RH): 3.5 % wt.
water uptake (DVS) ([6]; 25° C./60% RH, listed as EYP001 L-Lysine salt amorphous form): 6.8%
water uptake upon sorption (DVS) ([6]; 25° C./75% RH): 11.5 % wt.
water uptake upon sorption (DVS), after drastic decrease ([6]; 25° C./95% RH): 4 % wt.
maximum hysteresis sorption/desorption ([6]; 25° C., listed as EYP001 L-Lysine salt amorphous form): 10.3%
mass below the initial mass after desorption ([6]; back to 25° C./0% RH after full cycle): about 1.3 % wt.
hygroscopicity (DVS) ([6]; hygroscopic above 2% mass gain at 25° C./60% RH, listed as EYP001 L-Lysine salt amorphous form): hygroscopic
Soluble fraction [7, 12]: 0.029 mg/mL of EYP001
Soluble fraction [7, 13]: 0.023 mg/mL of EYP001

O=C(O)c1cc2c(Cl)c(N3CCN(S(=O)(=O)c4c(Cl)cccc4Cl)CC3)ccc2o1 [EYP001, 4-chloro-5-[4-(2,6-dichlorophenyl)sulfonylpiperazin-1-yl]-1-benzofuran-2-carboxylic acid]
Soluble fraction ([8]; 37° C.): 0.20 mg/mL of EYP001
pH ([8]; pH given with the soluble fraction): 6.4
Soluble fraction ([1]; after 0.5 h): 0.38 mg/mL of EYP001
Soluble fraction ([1]; after 1 h): 0.45 mg/mL of EYP001
Soluble fraction ([1]; after 2 h): 0.51 mg/mL of EYP001
Soluble fraction ([1]; after 24 h): 0.62 mg/mL of EYP001
pH ([1]; pH given with the soluble fraction, after 0.5 h): (pH = 4.9)
pH ([1]; pH given with the soluble fraction, after 1 h): (pH = 6.4)
pH ([1]; pH given with the soluble fraction, after 2 h): (pH = 4.9)
pH ([1]; pH given with the soluble fraction, after 24 h): (pH = 4.9)
Cmax [9]: 5580 ng/mL
AUC(0-t) ([9]; read-out: Mean AUC0-24): 29000 ng·h/mL
Cmax ([2]; rat, in vivo, aqueous formulation): 1440 ng/mL
AUC(0-t) ([2]; rat, in vivo, aqueous formulation, read-out: Mean AUClast): 3380 ng·h/mL
Cmax [10]: 6990 ng/mL
AUC(0-t) ([10]; read-out: Mean AUC0-24): 52300 ng·h/mL
Cmax [11]: 1350 ng/mL
AUC(0-t) ([11]; read-out: Mean AUC0-24): 3970 ng·h/mL
Soluble fraction ([7]; after 0.5 h): 0.004 mg/mL of EYP001
Soluble fraction ([7]; after 1 h): 0.003 mg/mL of EYP001
